According to PubChem BioAssay AID1963827 (Molecular Pharmacology Branch, DTP, NCI, 2024):

Tested on: 994946-033-R-J1-PDC complex spheroid viability
Assay: Anticancer human tumor 994946-033-R-J1-PDC patient-derived melanoma cell line growth inhibition [POLQ]
Conditions: for IC50: curve of first compound; for viability, T/C: stronger effect = lower value
Protocol: Multicellular complex tumor spheroid response to Polymerase (POL) inhibitors (novobiocin, ART-558, RP6685) in combination with a variety of drugs and investigational agents in selected tumor cell lines
The POL inhibitors (novobiocin, ART-558, and RP6685) were evaluated both individually and in combination with standard of care and investigational anticancer small molecules within a complex spheroid model of solid tumors. . Complex spheroids include a stromal component modeled by human endothelial cells (HUVEC) and fibroblasts modeled by human mesenchymal stem cells (MSCs). The concentration ranges selected for each drug and investigational agent were based upon clinically achievable concentrations if the clinical Cmax of the agent was known.
Compounds. The drugs and investigational agents: novobiocin (NSC847541), ART-558 (NSC835418), RP-6685 (NSC848927), peposertib (NSC802822), ceralasertib (NSC780249), elimusertib (NSC800525), camonsertib (NSC841442), AZD-1390 (NSC803789), olaparib (NSC753686), talazoparib (NSC767125), rucaparib (NSC756644), sotorasib (NSC818433), MRTX-1133 (NSC836407), SN-38 (NSC673596), topotecan (NSC609699), epotoside (NSC141540), doxorubicin (NSC123127), gemcitabine (NSC613327), 5-fluorouracil (NSC19893), paclitaxel (NSC125973), vemurafenib (NSC761431), MSA-2 (NSC828583), SN-011 (NSC837082), adavosertib (NSC754352), prexasertib (NSC758257), carboplatin (NSC241240) and oxaliplatin (NSC266046), were obtained from the National Cancer Institute (NCI) Developmental Therapeutics Program Chemical Repository (21). The FDA-approved anticancer drug set is available from the Developmental Therapeutics Program at https://dtp.cancer.gov/organization/dscb/obtaining/. […] The stock solutions were prepared in dimethyl sulfoxide (DMSO, Sigma-Aldrich, St. Louis, MO, cat. D2650), except for the platinum compounds which were prepared in saline (Quality Biological, Gaithersburg, MD, cat. 114-055-101), at 800-fold the tested concentration and stored at -70 degrees C prior to their use. All drugs and investigational agents were tested over a range starting from a high concentration at or near the clinical Cmax and decreasing in half-log increments. If the clinical Cmax for an agent had not been determined, the highest concentration tested was 10 microM, except for SN-38, which was tested at a high concentration of 1 microM.
Cell Culture. All cells were maintained in an incubator at 37 degrees C and 5% CO2 with 95% humidity. The PDC lines were cultured according to standard operating procedures established by the NCI PDMR (https://pdmr.cancer.gov). Table 3 of the manuscript, lists the cell lines along with the number of the three cell types plated to form the mct-spheroids and media for tumor cell growth. After thawing, all PDC lines, except 997537-175-T-J1-PDC and 415267-285-R-J2-PDC, were cultured in Matrigel-coated flasks prepared with a working solution of 1X Ham's F-12 nutrient mix, without supplementation (Thermo Fisher Scientific, cat. 11765054), 100 U/mL penicillin-streptomycin (Thermo Fisher Scientific, cat. 15140122), and 2.5% Matrigel (Corning Inc., Corning, NY, cat. 354248) for the first three passages. The two PDC lines 997537-175-T-J1-PDC and 415267-285-R-J2-PDC were cultured on uncoated flasks. The 857933-349-R-J2-PDC line was cultured in 6C/Colon 1B media containing advanced DMEM/F-12 (Thermo Fisher Scientific, cat. 12634028), 10 mM HEPES (Thermo Fisher Scientific, cat. 15630080), 1X GlutaMAX supplement (Thermo Fisher Scientific, cat. 35050061), 0.1 mg/mL primocin (InvivoGen, San Diego, CA, cat. ant-pm-2), 10% defined fetal bovine serum, heat inactivated (HyClone Laboratories Inc., Logan, UT, cat. SH30070.03HI), 50% L-WRN conditioned media (ATCC, cat. CRL-3276), 1.25 mM N-Acetyl-L-cysteine (Sigma-Aldrich, cat. A9165), 10 mM nicotinamide (Sigma-Aldrich, cat. N0636), 1X B-27 supplement (Thermo Fisher Scientific, cat. 17504044), 1X N-2 supplement (Thermo Fisher Scientific, cat. […]

[1] = second compound 0.0316 µM, first compound 0.0316 µM
[2] = second compound 0.0316 µM, first compound 0.1 µM
[3] = second compound 0.0316 µM, first compound 0.316 µM
[4] = second compound 0.0316 µM, first compound 1 µM
[5] = second compound 0.0316 µM, first compound 3.16 µM
[6] = second compound 0.0316 µM, first compound 10 µM
[7] = second compound 0.1 µM, first compound 0.0316 µM
[8] = second compound 0.1 µM, first compound 0.1 µM
[9] = second compound 0.1 µM, first compound 0.316 µM
[10] = second compound 0.1 µM, first compound 1 µM
[11] = second compound 0.1 µM, first compound 3.16 µM
[12] = second compound 0.1 µM, first compound 10 µM
[13] = second compound 0.316 µM, first compound 0.0316 µM
[14] = second compound 0.316 µM, first compound 0.1 µM
[15] = second compound 0.316 µM, first compound 0.316 µM
[16] = second compound 0.316 µM, first compound 1 µM
[17] = second compound 0.316 µM, first compound 3.16 µM
[18] = second compound 0.316 µM, first compound 10 µM
[19] = second compound 1 µM, first compound 0.0316 µM
[20] = second compound 1 µM, first compound 0.1 µM
[21] = second compound 1 µM, first compound 0.316 µM
[22] = second compound 1 µM, first compound 1 µM
[23] = second compound 1 µM, first compound 3.16 µM
[24] = second compound 1 µM, first compound 10 µM
[25] = second compound 3.16 µM, first compound 0.0316 µM
[26] = second compound 3.16 µM, first compound 0.1 µM
[27] = second compound 3.16 µM, first compound 0.316 µM
[28] = second compound 3.16 µM, first compound 1 µM
[29] = second compound 3.16 µM, first compound 3.16 µM
[30] = second compound 3.16 µM, first compound 10 µM
[31] = second compound 10 µM, first compound 0.0316 µM
[32] = second compound 10 µM, first compound 0.1 µM
[33] = second compound 10 µM, first compound 0.316 µM
[34] = second compound 10 µM, first compound 1 µM
[35] = second compound 10 µM, first compound 3.16 µM
[36] = second compound 10 µM, first compound 10 µM
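Note: spheroids exposed to drugs for 7 days.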
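Throughout, for viability, T/C: 100% = DMSO vehicle treated spheroids.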

## CCc1cc2c(N3CCc4c(cc(Cn5ccnc5)cc4-c4cn(C)nc4C(F)(F)F)C3=O)ccnc2c(OC)n1 + Cc1cccc(N(C)C(=O)C2C(O)CCN2c2nc(C)cc(C(F)(F)F)c2C#N)c1
Second compound 0.0316 µM
  IC50: > 10 µM
Second compound 0.1 µM
  IC50: > 10 µM
Second compound 0.316 µM
  IC50: > 10 µM
Second compound 1 µM
  IC50: > 10 µM
Second compound 3.16 µM
  IC50: > 10 µM
Second compound 10 µM
  IC50: > 10 µM
[1]
  viability, T/C: 107%
[2]
  viability, T/C: 86.7%
[3]
  viability, T/C: 68.3%
[4]
  viability, T/C: 78.4%
[5]
  viability, T/C: 69.1%
[6]
  viability, T/C: 67.4%
[7]
  viability, T/C: 95.3%
[8]
  viability, T/C: 85.2%
[9]
  viability, T/C: 78.6%
[10]
  viability, T/C: 78.1%
[11]
  viability, T/C: 66.3%
[12]
  viability, T/C: 66.9%
[13]
  viability, T/C: 102%
[14]
  viability, T/C: 94.2%
[15]
  viability, T/C: 86.1%
[16]
  viability, T/C: 93.9%
[17]
  viability, T/C: 63.3%
[18]
  viability, T/C: 61.6%
[19]
  viability, T/C: 77.7%
[20]
  viability, T/C: 78.8%
[21]
  viability, T/C: 93.5%
[22]
  viability, T/C: 80.1%
[23]
  viability, T/C: 84.1%
[24]
  viability, T/C: 55.2%
[25]
  viability, T/C: 92.4%
[26]
  viability, T/C: 76.8%
[27]
  viability, T/C: 65%
[28]
  viability, T/C: 63%
[29]
  viability, T/C: 85.9%
[30]
  viability, T/C: 53.1%
[31]
  viability, T/C: 81.5%
[32]
  viability, T/C: 65.4%
[33]
  viability, T/C: 73.6%
[34]
  viability, T/C: 57.8%
[35]
  viability, T/C: 71.7%
[36]
  viability, T/C: 65.9%

## COc1cc2cc(C(=O)CCC(=O)O)sc2cc1OC + Cc1cccc(N(C)C(=O)C2C(O)CCN2c2nc(C)cc(C(F)(F)F)c2C#N)c1
Second compound 0.0316 µM
  IC50: > 10 µM
Second compound 0.1 µM
  IC50: > 10 µM
Second compound 0.316 µM
  IC50: > 10 µM
Second compound 1 µM
  IC50: > 10 µM
Second compound 3.16 µM
  IC50: > 10 µM
Second compound 10 µM
  IC50: > 10 µM
[1]
  viability, T/C: 79.5%
[2]
  viability, T/C: 96.4%
[3]
  viability, T/C: 130%
[4]
  viability, T/C: 74.9%
[5]
  viability, T/C: 91%
[6]
  viability, T/C: 82.3%
[7]
  viability, T/C: 116%
[8]
  viability, T/C: 91.4%
[9]
  viability, T/C: 102%
[10]
  viability, T/C: 88.5%
[11]
  viability, T/C: 98.8%
[12]
  viability, T/C: 92.8%
[13]
  viability, T/C: 67.7%
[14]
  viability, T/C: 96.1%
[15]
  viability, T/C: 70.5%
[16]
  viability, T/C: 88.2%
[17]
  viability, T/C: 79.7%
[18]
  viability, T/C: 84.3%
[19]
  viability, T/C: 67.6%
[20]
  viability, T/C: 86.9%
[21]
  viability, T/C: 72.9%
[22]
  viability, T/C: 103%
[23]
  viability, T/C: 72.3%
[24]
  viability, T/C: 80.9%
[25]
  viability, T/C: 120%
[26]
  viability, T/C: 93.4%
[27]
  viability, T/C: 101%
[28]
  viability, T/C: 94.4%
[29]
  viability, T/C: 110%
[30]
  viability, T/C: 94.1%
[31]
  viability, T/C: 97.6%
[32]
  viability, T/C: 94.4%
[33]
  viability, T/C: 92.9%
[34]
  viability, T/C: 86.3%
[35]
  viability, T/C: 87.8%
[36]
  viability, T/C: 76.7%
